Values of other authors, collected in patent US20070218155A1, “Methods and compositions for treating dyslipidaemia” (priority 2004, published 2007).

Tests used:
[1] = literature statement; cited from earlier work
HMG CoA reductase = target: T1, HMG CoA reductase (Homo sapiens, UniProt P04035); conditions: HepG2 cells; comparison value; cited from earlier work
T1 construct: host or cells: HepG2
T1 sequence (P04035 1-888): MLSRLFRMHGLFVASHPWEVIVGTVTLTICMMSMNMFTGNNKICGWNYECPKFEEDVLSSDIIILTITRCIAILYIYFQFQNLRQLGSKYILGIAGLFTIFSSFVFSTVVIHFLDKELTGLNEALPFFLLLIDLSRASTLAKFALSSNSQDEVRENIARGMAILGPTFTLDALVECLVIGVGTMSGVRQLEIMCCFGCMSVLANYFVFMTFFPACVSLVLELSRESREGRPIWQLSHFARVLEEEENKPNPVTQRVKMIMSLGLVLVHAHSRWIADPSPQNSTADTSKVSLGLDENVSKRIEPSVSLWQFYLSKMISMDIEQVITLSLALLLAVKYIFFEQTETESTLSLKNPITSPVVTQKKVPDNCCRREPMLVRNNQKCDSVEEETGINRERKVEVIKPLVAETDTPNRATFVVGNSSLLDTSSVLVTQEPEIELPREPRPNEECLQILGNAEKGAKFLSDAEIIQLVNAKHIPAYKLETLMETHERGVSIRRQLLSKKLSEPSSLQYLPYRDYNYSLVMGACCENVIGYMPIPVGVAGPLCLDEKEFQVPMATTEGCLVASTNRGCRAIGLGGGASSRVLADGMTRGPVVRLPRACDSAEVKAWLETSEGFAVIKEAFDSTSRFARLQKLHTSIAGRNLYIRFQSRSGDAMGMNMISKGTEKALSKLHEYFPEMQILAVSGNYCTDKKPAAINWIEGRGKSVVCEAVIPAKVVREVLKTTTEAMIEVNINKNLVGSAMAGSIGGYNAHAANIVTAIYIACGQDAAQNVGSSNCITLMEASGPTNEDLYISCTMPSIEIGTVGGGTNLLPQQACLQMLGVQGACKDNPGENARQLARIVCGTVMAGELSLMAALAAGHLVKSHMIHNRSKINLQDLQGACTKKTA

[2] = tested on: DGAT activity in intact Raji cells; conditions: Tabata et al.; cited from earlier work

| Compound | estrogenic activity [1] | inhibition of HMG CoA reductase (HMG CoA reductase) | inhibition of triacylglycerol formation / DGAT activity in intact Raji cells [2] |
| --- | --- | --- | --- |
| CC(C)=CCc1c(O)cc(O)c2c1O[C@H](c1ccc(O)cc1)CC2=O [8-prenylnaringenin, 8-prenylnaringenin] | potent estrogenic activity |  |  |
| CC(C)c1c(C(=O)Nc2ccccc2)c(-c2ccccc2)c(-c2ccc(F)cc2)n1CC[C@@H](O)C[C@@H](O)CC(=O)O [Atorvastatin] |  | about 96% |  |
| COc1cc(O)c(CC=C(C)C)c(O)c1C(=O)/C=C/c1ccc(O)cc1 [xanthohumol] | does not exhibit estrogenic activity |  | inhibited DGAT activity specifically in human cells |
